# Laboratory results taken from PubChem BioAssay AID1259407 (Chemical Carcinogenesis Research Information System (CCRIS), 2018).
# The source made the active and inactive calls. No rule for the calls is given here.
# Tested on: CCRIS mutagenicity, Ames/micronucleus/aberration tests
# Assay: CCRIS mutagenicity studies
# [1] = Test System: AMES SALMONELLA TYPHIMURIUM, Strain/Indicator: TA98, Metabolic Activation: NONE, Method: STANDARD PLATE
# [2] = Test System: AMES SALMONELLA TYPHIMURIUM, Strain/Indicator: TA100, Metabolic Activation: NONE, Method: STANDARD PLATE
# [3] = Test System: AMES SALMONELLA TYPHIMURIUM, Strain/Indicator: TA1535, Metabolic Activation: NONE, Method: STANDARD PLATE
# [4] = Test System: AMES SALMONELLA TYPHIMURIUM, Strain/Indicator: TA1537, Metabolic Activation: NONE, Method: STANDARD PLATE
# [5] = Test System: AMES SALMONELLA TYPHIMURIUM, Strain/Indicator: TA98, Metabolic Activation: NONE, Method: PREINCUBATION
# [6] = Test System: AMES SALMONELLA TYPHIMURIUM, Strain/Indicator: TA100, Metabolic Activation: NONE, Method: PREINCUBATION
smiles,measurement,setting,value
Nc1ncn([C@@H]2O[C@H](CO)[C@@H](O)[C@@H]2O)c(=O)n1,mutagenic call,"Test System: AMES SALMONELLA TYPHIMURIUM, Strain/Indicator: TA98, Metabolic Activation: HAMSTER, LIVER, S-9, AROCLOR 1254, Method: STANDARD PLATE",inactive; negative
same,mutagenic call,[1],inactive; negative
same,mutagenic call,"Test System: AMES SALMONELLA TYPHIMURIUM, Strain/Indicator: TA98, Metabolic Activation: RAT, LIVER, S-9, AROCLOR 1254, Method: STANDARD PLATE",inactive; negative
same,mutagenic call,"Test System: AMES SALMONELLA TYPHIMURIUM, Strain/Indicator: TA100, Metabolic Activation: HAMSTER, LIVER, S-9, AROCLOR 1254, Method: STANDARD PLATE",inactive; negative
same,mutagenic call,[2],inactive; negative
same,mutagenic call,"Test System: AMES SALMONELLA TYPHIMURIUM, Strain/Indicator: TA100, Metabolic Activation: RAT, LIVER, S-9, AROCLOR 1254, Method: STANDARD PLATE",inactive; negative
same,mutagenic call,"Test System: AMES SALMONELLA TYPHIMURIUM, Strain/Indicator: TA1535, Metabolic Activation: HAMSTER, LIVER, S-9, AROCLOR 1254, Method: STANDARD PLATE",inactive; negative
same,mutagenic call,[3],inactive; negative
same,mutagenic call,"Test System: AMES SALMONELLA TYPHIMURIUM, Strain/Indicator: TA1535, Metabolic Activation: RAT, LIVER, S-9, AROCLOR 1254, Method: STANDARD PLATE",inactive; negative
same,mutagenic call,"Test System: AMES SALMONELLA TYPHIMURIUM, Strain/Indicator: TA1537, Metabolic Activation: HAMSTER, LIVER, S-9, AROCLOR 1254, Method: STANDARD PLATE",inactive; negative
same,mutagenic call,[4],inactive; negative
same,mutagenic call,"Test System: AMES SALMONELLA TYPHIMURIUM, Strain/Indicator: TA1537, Metabolic Activation: RAT, LIVER, S-9, AROCLOR 1254, Method: STANDARD PLATE",inactive; negative
same,mutagenic call,"Test System: AMES SALMONELLA TYPHIMURIUM, Strain/Indicator: TA1538, Metabolic Activation: HAMSTER, LIVER, S-9, AROCLOR 1254, Method: STANDARD PLATE",inactive; negative
same,mutagenic call,"Test System: AMES SALMONELLA TYPHIMURIUM, Strain/Indicator: TA1538, Metabolic Activation: NONE, Method: STANDARD PLATE",inactive; negative
same,mutagenic call,"Test System: AMES SALMONELLA TYPHIMURIUM, Strain/Indicator: TA1538, Metabolic Activation: RAT, LIVER, S-9, AROCLOR 1254, Method: STANDARD PLATE",inactive; negative
same,mutagenic call,"Test System: MOUSE LYMPHOMA, Strain/Indicator: L5178Y (TK+/TK-), Metabolic Activation: NONE, Method: SUSPENSION/PLATE",active; positive. reevaluation of results: inconclusive
same,mutagenic call,"Test System: MOUSE LYMPHOMA, Strain/Indicator: L5178Y (TK+/TK-), Metabolic Activation: RAT, LIVER, S-9, AROCLOR 1254, Method: SUSPENSION/PLATE",inactive; negative. reevaluation of results: inconclusive
CN1CSC(=S)N(C)C1,mutagenic call,"End Point: In vivo micronucleus, Test System: Micronucleated polychromatic erythrocytes, Species: Mouse, Strain/Sex: NMRI / Males and females, Route: Oral",inactive; negative
CCCCN(CC(O)c1ccc(O)cc1)N=O (centres undefined),mutagenic call,[5],inactive; negative
same,mutagenic call,"Test System: AMES SALMONELLA TYPHIMURIUM, Strain/Indicator: TA98, Method: PREINCUBATION",inactive; negative
same,mutagenic call,[6],inactive; negative
same,mutagenic call,"Test System: AMES SALMONELLA TYPHIMURIUM, Strain/Indicator: TA100, Method: PREINCUBATION",inactive; negative
CN(C)c1ccc(N=Nc2ccccc2CO)cc1,mutagenic call,"Test System: AMES SALMONELLA TYPHIMURIUM, Strain/Indicator: TA98, Metabolic Activation: RAT, LIVER, S-9, N-BENZYLIMIDAZOLE, Method: PREINCUBATION",active; positive
Cc1cc2c(c(O)c1O)C(=O)c1c(O)cc(O)cc1C2=O,mutagenic call,[1],inactive; negative
same,mutagenic call,[2],inactive; negative
same,mutagenic call,[3],inactive; negative
same,mutagenic call,[4],active; positive
same,mutagenic call,"Test System: AMES SALMONELLA TYPHIMURIUM, Strain/Indicator: TA1537, Metabolic Activation: RAT, LIVER, S-9, PCB, Method: STANDARD PLATE",active; positive
C[C-](C)[N+](=O)[O-],mutagenic call,[5],active; positive
same,mutagenic call,"Test System: AMES SALMONELLA TYPHIMURIUM, Strain/Indicator: TA98, Metabolic Activation: RAT, LIVER, S-9, AROCLOR 1254, Method: PREINCUBATION",active; positive
same,mutagenic call,[6],active; positive
same,mutagenic call,"Test System: AMES SALMONELLA TYPHIMURIUM, Strain/Indicator: TA100, Metabolic Activation: RAT, LIVER, S-9, AROCLOR 1254, Method: PREINCUBATION",active; positive
same,mutagenic call,"Test System: AMES SALMONELLA TYPHIMURIUM, Strain/Indicator: TA100, Metabolic Activation: RAT, LIVER, S-9, AROCLOR, Method: PREINCUBATION",active; positive
same,mutagenic call,"Test System: AMES SALMONELLA TYPHIMURIUM, Strain/Indicator: TA102, Metabolic Activation: NONE, Method: PREINCUBATION",active; positive
same,mutagenic call,"Test System: AMES SALMONELLA TYPHIMURIUM, Strain/Indicator: TA102, Metabolic Activation: RAT, LIVER, S-9, AROCLOR 1254, Method: PREINCUBATION",active; positive
same,mutagenic call,"Test System: AMES SALMONELLA TYPHIMURIUM, Strain/Indicator: TA102, Metabolic Activation: RAT, LIVER, S-9, AROCLOR, Method: PREINCUBATION",active; positive
same,mutagenic call,"Test System: UDS CHINESE HAMSTER V-79 CELLS, Metabolic Activation: NONE, Method: AUTORADIOGRAPHY",active; positive
same,mutagenic call,"Test System: UDS CHINESE HAMSTER V-79 CELLS, Strain/Indicator: V-79-MZ/CYTIDINE INCORPORATION, Metabolic Activation: NONE, Method: AUTORADIOGRAPHY",inactive; negative
same,mutagenic call,"Test System: UDS CHINESE HAMSTER V-79 CELLS, Strain/Indicator: V-79-RHST20/CYTIDINE INCORPORATION, Metabolic Activation: NONE, Method: AUTORADIOGRAPHY",inactive; negative
same,mutagenic call,"Test System: UDS CHINESE HAMSTER V-79 CELLS, Strain/Indicator: V-79-RHSTA/CYTIDINE INCORPORATION, Metabolic Activation: NONE, Method: AUTORADIOGRAPHY",inactive; negative
same,mutagenic call,"Test System: UDS CHINESE HAMSTER V-79 CELLS, Strain/Indicator: V-79-RPST-IV/CYTIDINE INCORPORATION, Metabolic Activation: NONE, Method: AUTORADIOGRAPHY",active; positive
same,mutagenic call,"Test System: UDS HUMAN HEPATOCYTES, Strain/Indicator: THY INCORP, Metabolic Activation: NONE, Method: AUTORADIOGRAPHY",active; positive
same,mutagenic call,"Test System: UDS MOUSE HEPATOCYTES, Strain/Indicator: THY INCORP, Metabolic Activation: NONE, Method: AUTORADIOGRAPHY",active; positive
same,mutagenic call,"Test System: UDS RAT HEPATOCYTES, Strain/Indicator: THY INCORP, Metabolic Activation: NONE, Method: AUTORADIOGRAPHY",active; positive
